Patent US20140128472A1, “TREATMENT AND PREVENTION OF DISEASES RELATED TO OXIDATIVE STRESS” (UNIVERSITY OF PÉCS, priority 2011, published 2014)
“Also recorded” adds a separate entry of the source.

How the values were obtained:
Akt (protein kinase B) = test: Insulin-induced phosphorylation of Akt in 3T3-L1 adipocytes (Western blot); assay type: cell-based, mouse
Protocol: Primary cultures of mouse embryo fibroblasts (3T3-L1) were purchased from ATCC (Manassas, US). Early passages of 3T3-L1 fibroblasts were cultured in Dulbecco's modified Eagle medium ((DMEM, Invitrogen, CAT number: 41966-029; Sigma Aldrich CAT number: D6046) supplemented with 10% Fetal Bovine Serum (Gibco, CAT number: 16170-078), 100 U/ml penicillin and 0.1 mg/ml streptomycin (Gibco, CAT number: 15070-063) and 398 nM p-, m-, or o-Tyr. DMEM contained 25 or 5 mM glucose (depending on the experiment), L-glutamine, and pyruvate. Cells were grown in a humidified incubator at 37° C. and 5% CO2. Differentiation medium consisted of DMEM supplemented with 10% Fetal Bovine Serum (FBS, Gibco, Csertex, Budapest, Hungary, CAT number: 10106-169) (FBS), to which a cocktail was added containing […] isobuthylmethylxanthine (Sigma Aldrich, CAT number: I 5879), 0.17 nM insulin (Sigma Aldrich, CAT number: I 9278) and 250 nM dexamethasone (Sigma Aldrich, CAT number: 861871). From Day 4 onward, cells were maintained in DMEM/10% FBS containing […] insulin with a media change every other day until experimental treatments were initiated. For all treatments, cells were incubated overnight in serum-deprived medium after 90% of the cell population reached the adipocyte phenotype.
Following the treatment cells were washed twice with Saline (4° C.) to remove any trace of the medium, then exposed to 80 μL lysis buffer/plate, containing 1.15% Triton X, 1M Trisbase, pH 7.4, 0.5 M EDTA, pH 8, 0.2 M EGTA, pH 7, 0.1 M dithiothreitol (DTT), 5 mg/ml phenylmethylsulfonyl fluoride (PMSF), 0.1 M Na3VO4, 5 mg/ml leupeptin, 5 mg/ml aprotinin, Phoshatase Inhibitor Coctail 1 and 2 (Sigma Aldrich, CAT number: P2850 and P5726). Adypocytes were scraped off mechanically and then frozen at −70° C.
The samples of EC lysates were sonicated (2 min) and centrifuged (10 min, 13,000 rpm, at 4° C.). Protein content of samples was determined by the Bradford method using bovine serum albumin as a standard Bio-Rad Benchmark Plus. Samples were solubilized in a buffer of 100 mM Tris-HCl (pH 6.8), 4.0% sodium dodecyl sulphate (SDS), 20% glycerol, 200 mM DTT, and 0.2% bromophenol blue. […]
Membranes were incubated overnight with the immunoglobulin G (IgG) monoclonal antibodies diluted to 1:1000 in TBS-T (0.1%), containing 5% bovine serum (BS). […] Blots were detected using enhanced chemiluminescence (ECL; Pierce Biotech, Bio-Rad, Budapest, Hungary). Computerized densitometry (integrated optical density) of the specific bands was analyzed with Scion Image for Windows Software. […]

[1] = test system: thoracic and abdominal aorta, renal and femoral arteries; test: Insulin-induced relaxation of isolated arterial segments after oral tyrosine isomer supplementation of rats; assay type: in vivo, Sprague-Dawley rats; details: for Insulin-induced relaxation, abdominal aorta, femoral (and renal) arteries / Insulin-induced relaxation, thoracic aorta: 1.76 mg/die per os; for Insulin-induced relaxation, abdominal aorta, femoral (and renal) arteries: compared to control; for Insulin-induced relaxation, thoracic aorta: compared to control/other groups; for Chronic effects on insulin-induced vasorelaxation after washout: 8th week, 4 weeks washout, all segments
Protocol: The experiments were carried out with the permission of the Hungarian Local Animal Experiment Committee. Shortly after weaning male CFY rats (a strain of the Sprague-Dawley rat) were placed in individual cages and held on regular diet. After two hours of fasting animals (4-5 week-old, 80-140 g) were loaded with 1.76 mg/die para-, meta- or ortho-tyrosine (p-, m-, o-tyr; Sigma-Aldrich, Inc., St. Louis, Mo. 63178, USA) dissolved in saline or vehicle (saline only) by gavage (per os) six days of the week. After one month treatment, animals were either anaesthetized with ether and were decapitated with a guillotine or p-, m-, o-tyr and vehicle supplementation was discontinued (“washout” period) and they were sacrificed […] (FIG. 8.A). The descending thoracic and abdominal aorta, renal and femoral arteries were removed and cleaned from connective tissue (FIG. 19). Sections were immediately hydrolyzed for HPLC analysis or were used for vascular reactivity studies.
In further tyrosine isomer incorporation studies when effects of chronic oral p-Tyr and o-Tyr supplementation of rats on the o-Tyr level and insulin-induced relaxation of isolated arterial segments were studied, 18 Male Sprague-Dawley rats (5-6 week-old) were used. Rats were orally supplied with either 1.76 mg/die of p-Tyr or o-Tyr or vehicle during six days per week for four weeks. […] At the end of four-week treatment, HPLC and vasomotor studies were performed. In another group of rats, p-Tyr/o-Tyr supplementation was discontinued for four weeks (“washout” period), after which they were sacrificed for HPLC and vasomotor studies.
The modified method of Fésüs et al. (Fésüs2007) was used. The distal parts of the vessels were dissected into 2 mm long segments in ice-cold Krebs buffer and rings were mounted on two stainless steel wires (40 μm in diameter) in a Danish Multimyograph Model 610M (DMT-USA Inc., Atlanta, Ga., USA). Vessels were bathed in Krebs buffer (containing 119 mM NaCl, 4.7 mM KCl, 1.2 mM KH2PO4, 25 mM NaHCO3, 1.2 mM Mg2SO4, 11.1 mM glucose, 1.6 mM CaCl2*2H2O, pH 7.4) and gassed with 5% CO2 and 95% O2 at 37° C. The resting tension/internal circumference relationship for each vessel was determined and then the internal circumference was set to 0.9×L100, where L100 is the internal circumference the vessel would have had in vivo when relaxed under a transmural pressure of 100 mmHg After this normalization procedure vessels were allowed to stabilize for 30 min, and then isometric tension was continuously recorded. Rings were preconstricted with 100 nM epinephrine. After reaching a stabile contraction plateau, relaxant responses to increasing doses of insulin were assessed. The rate of relaxation was expressed as percentage of the contraction evoked by epinephrine (100%). Para-, meta-, ortho-tyrosine or vehicle were added to the vessel chamber 10 minutes before the addition of epinephrine and 30 minutes before the addition of insulin.

SMILES | Insulin-induced Akt phosphorylation (Akt (protein kinase B); cells grown on m-Tyr or o-Tyr, insulin 200 and 400 nmol/l) | Insulin-induced relaxation, abdominal aorta, femoral (and renal) arteries ([1]; 4th week) | Insulin-induced relaxation, thoracic aorta ([1]; 4th week) | Insulin-induced relaxation, all three isolated segments compared to the p-Tyr-treated group ([1]; 4th week, thoracic and abdominal aorta, femoral artery) | Chronic effects on insulin-induced vasorelaxation after washout [1] | Insulin-induced Akt phosphorylation (Akt (protein kinase B); cells grown on high glucose media with p-Tyr only) | Increase in Akt (protein kinase B) phosphorylation by insulin compared to controls (Akt (protein kinase B); cells grown on p-Tyr and low glucose, increasing doses of insulin) [fold]
N[C@@H](Cc1ccccc1O)C(=O)O [o-Tyr, Ortho-L-tyrosine] | inhibited the insulin-induced Akt-phosphorylation; also recorded: could not be significantly enhanced by insulin | significantly diminished response to insulin | no significant difference; also recorded: did not observe any significant further decline of response to insulin | markedly attenuated insulin-induced relaxations | completely abolished |  | 
N[C@@H](Cc1ccc(O)cc1)C(=O)O [p-Tyr, Para-L-tyrosine] |  | could not detect significant difference | increased insulin-induced relaxations only in the thoracic aorta; also recorded: increased relaxation in response to insulin; also recorded: higher vasorelaxation response to insulin; also recorded: greater vasorelaxation |  | completely abolished | significantly lower Akt-phosphorylation | 3
